From the SangsterLogP compilation

logP | Compound
7.45 | CCCCCCCC/C=C\CCCCCCCC(=O)OC
9.3 | CCCCCCCCCCCCCCCCCCCC(=O)OC
9.32 | CCCCCCCC/C=C\CCCCCCCCCCCC(=O)OC
10.2 | CCCCCCCCCCCCCCCCCCCCCC(=O)OC
7.38 | CCCCCCCCCCCCCCCC(=O)OC
8.35 | CCCCCCCCCCCCCCCCCC(=O)OC

More lines, now with the values behind:

Compound | logP
CCCCCCCCCCCC(=O)OCC(CC)CCCC (stereo not given) | 8.03
CCCCCCCCCCCCCC(=O)OC | 6.41
CCCCCCCCCCCC(=O)OCCC | 6.11
CCCCCCCCCC(=O)OC | 4.42
CCCCC/C=C\C/C=C\CCCCCCCC(=O)OC | 6.82
CCCCCCCCCCCC(=O)OC | 5.41
CC/C=C\C/C=C\C/C=C\CCCCCCCC(=O)OC | 6.29
CCCCCCCCCCCC(=O)OCCCC | 6.51
CCCCCCCCCCCC(=O)OCC | 5.71
